The source of these data is patent US20240409528A1, “BINDERS OF CEREBLON AND METHODS OF USE THEREOF” (DANA-FARBER CANCER INSTITUTE, INC., priority 2021, published 2024).

Structures are written as SMILES. pIC50: −log10 of the molar value. ≈ marks a conversion by molar mass, not a printed value. Read-outs that look alike come from different tables or passages of the source.

For one series, the target named is T1, NanoLuc-CRBN (Homo sapiens, UniProt Q96SW2).
T1 construct: expressed in transfected cells; host or cells: HEK293T, lentiviral transduction, puromycin selection
The series can be described thus: Cellular CRBN NanoBret Engagement Assay. It is filed as cell-based. As for the experimental part:
HEK293T cells were transduced with lentivirus and put under puromycin selection (5 μg/mL) for two weeks to produce a cell line stably expressing CRBN with N-terminally fused NanoLuc® luciferase (NanoLuc-CRBN). After antibiotic selection, cells were cultured in DMEM (Gibco, Life Technologies) supplemented with 10% FBS and 1 μg/mL puromycin to maintain stable NanoLuc®-CRBN expression. […] After 3-4 min, the trypsin was quenched with 5× volume DMEM media (Gibco, Life Technologies) with 10% FBS and cells were collected by centrifugation (1000 rpm, 5 min). The supernatant was removed by vacuum aspiration and the pellet was then resuspended in Opti-MEM™ without phenol red. The density of this cell suspension was determined by diluting the cells 1:1 with trypan blue, then counting using a Countess II (Thermo Fischer Scientific) and then diluted to the required volume at 2×10^5 viable cells/mL in Opti-MEM™ I (Gibco, Life Technologies). […] After plating, the assay plate was centrifuged (500×g, 5 min) and covered in aluminum foil. Compounds for testing were added to the plate using a D300e Digital Dispenser (HP) in duplicate 12-pt titrations from a 10 mM stock in DMSO, with DMSO normalized to 1% total volume. The plate was then placed in an incubator at 37° C., 5% CO2 for two hours. […] This was then added to each well (25 μL/well). The plate was read on a Pherastar FSX microplate reader with simultaneous dual emission capabilities to read 384-well plates at 450 and 520 nm. The NanoBRET™ ratio was calculated by dividing the signal at 520 nm by the signal at 450 nm for each sample. […] The NanoLuc® substrate and extracellular inhibitor were purchased as a kit from Promega Corporation and used as is from the box—Promega NanoBRET™ Nano-Glo® Substrate/Inhibitor; Promega Catalog number N2161 for 10,000 assay kit.

The nature of series [1]: Human liver microsome (HLM) stability. It is filed as in vitro ADME. To be noted: human liver microsomes. As to the method:
(§1) The stability of compounds was assessed in human plasma, human liver microsomes (HLM) and human hepatocytes (Hhep) using procedures previously published (Kong el al., ACS Med Chem Lett 12:1861-1865 (2021)). […] HLM stability T1/2 compound 1: >145 min. Hhep stability Tin compound 1: >217 min.
On the technique in general: Microsomes from liver hold many membrane-bound enzymes, among them those of drug oxidation.

Series [2] in a line: Human hepatocyte (Hhep) stability. Conditions: human hepatocytes. It is filed as in vitro ADME. As for the experimental part:
as §1

The nature of another series: Caco-2 permeability. It is filed as in vitro ADME. Conditions: human. (Caco-2 cells form a polarised layer with tight junctions and transporters.)
A short description of another series: Kinetic solubility. The format is physicochemical. To be noted: kinetic from dmso stock.
The nature of a further series: in vitro. Conditions: human, plasma.
Series [3] addresses T2, hsCRBN-DDB1 complex (Homo sapiens, UniProt Q96SW2). The series can be described thus: Intact LC-MS of CRBN-DDB1 complex (covalent labeling). It is filed as binding. To be noted: for adduct formation with CRBN (intact MS): equimolar compound, room temperature. As for the experimental part:
After injecting 5 μg, proteins were desalted for four min on column with 100% A and then eluted with an HPLC gradient (0-100% B in 1 min; A=0.2 M acetic acid in water; B=0.2 M acetic acid in acetonitrile). The mass spectrometer was programmed to acquire full scan mass spectra (m/z 300-2000) in profile mode (spray voltage=4.5 kV). Mass spectra were deconvoluted using MagTran software version 1.03b2.

The target of the next series is T3, GSPT1 (Homo sapiens, UniProt P15170).
T3 construct: endogenous in cells; host or cells: MOLT4
The series can be described thus: Mass spectrometry proteomics, relative protein abundance in MOLT4 cells (GSPT1). The format is cell-based. Conditions: 1 μM compound, 5 hours.

Another series has as its target T4, PFKFB4 (Homo sapiens, UniProt Q16877).
T4 construct: endogenous in cells; host or cells: MOLT4
The series is described as follows: Mass spectrometry proteomics, relative protein abundance in MOLT4 cells (PFKFB4). To be noted: 1 μM compound, 5 hours. The format is cell-based.

In a further series the target is T5, RNF166 (Homo sapiens, UniProt Q96A37).
T5 construct: endogenous in cells; host or cells: MOLT4
T5 sequence (Q96A37 1-237): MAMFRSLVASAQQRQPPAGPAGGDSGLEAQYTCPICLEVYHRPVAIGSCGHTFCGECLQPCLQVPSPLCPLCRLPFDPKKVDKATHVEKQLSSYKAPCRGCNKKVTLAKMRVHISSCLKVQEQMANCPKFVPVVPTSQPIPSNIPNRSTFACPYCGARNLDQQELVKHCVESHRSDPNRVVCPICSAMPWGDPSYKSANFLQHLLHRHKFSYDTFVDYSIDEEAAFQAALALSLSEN
The series is described as follows: Mass spectrometry proteomics, relative protein abundance in MOLT4 cells (RNF166). It is filed as cell-based. Conditions: 1 μM compound, 5 hours.

The target of series [4] is T2, hsCRBN-DDB1 complex. The series can be described thus: Peptide mapping CE-MS/MS, site of covalent modification. The format is binding. To be noted: trypsin digest. From the text: Peptides were resolved at 500 V/cm using an HR chip with a background electrolyte consisting of 50% acetonitrile with 1% formic acid. The mass spectrometer was operated in data dependent mode and the five most abundant ions in each MS scan (m/z 300-2000, 60K resolution, 3E6 target, 100 ms max fill time) were subjected to MS/MS (15K resolution, 1E5 target, 100 ms max fill time). […] Search parameters specified fixed vinylpyridine modification of cysteine, variable methionine oxidation, and variable modification of cysteine. Modified spectra were examined and figures prepared using mzStudio software.

Another series concerns IKZF1. The series is described as follows: Inhibition of IKZF1 degradation by lenalidomide, Western blot in MOLT4 cells. Conditions: 1 μM compound 2 hr pre-treatment, then 1 μM lenalidomide 5 hours. In general terms: In western blotting, separated proteins are transferred to a membrane and probed.
[5] abbreviates: HEK293T cells stably expressing NanoLuc-CRBN, 250 nM BODIPY-lenalidomide tracer, 2 h incubation, read-out: CRBN NanoBRET IC50.

With `O=C1CCC(N2Cc3ccc(S(=O)(=O)n4cc(F)cn4)cc3C2=O)C(=O)N1` (stereo not drawn) [Compound 12, 3-(6-((4-fluoro-1H-pyrazol-1-yl)sulfonyl)-1-oxoisoindolin-2-yl)piperidine-2,6-dione], the “Human plasma stability T1/2” value turned out to be 1.53 h.

Molecule `Nc1cc(OS(=O)(=O)F)cc2c1CN(C1CCC(=O)NC1=O)C2=O` (stereo not drawn) [Compound 10, 4-amino-2-(2,6-dioxo-3-piperidyl)-6-fluorosulfonyloxy-1-oxo-isoindoline] had a pIC50 on NanoLuc-CRBN of 6.05.

Turning to `O=C1CCC(N2Cc3ccc(OS(=O)(=O)F)cc3C2=O)C(=O)N1` (stereo not drawn) [Compound 1, 2-(2,6-dioxopiperidin-3-yl)-3-oxoisoindolin-5-yl sulfurofluoridate], the “HLM stability T1/2” value in [1] was above 2.42 h. In series [2], the “Hhep stability Tin” value is reported as above 217 min. The molecule further showed a Papp in “Caco-2 permeability” of 29.5 ×10⁻⁶ cm/s. The solubility (kinetic) in “Kinetic solubility” is 119 µM (≈ 40.7 µg/mL).

For `Cc1cnn(S(=O)(=O)c2ccc3c(c2)C(=O)N(C2CCC(=O)NC2=O)C3)c1` (stereo not drawn) [Compound 11, 3-(6-((4-methyl-1H-pyrazol-1-yl)sulfonyl)-1-oxoisoindolin-2-yl)piperidine-2,6-dione], the “Human plasma stability T1/2” value is above 4.82 h.

`Nc1cn(S(=O)(=O)c2ccc3c(c2)C(=O)N(C2CCC(=O)NC2=O)C3)c(=O)[nH]c1=O` (stereo not drawn) [Compound 20, 5-amino-1-((2-(2,6-dioxopiperidin-3-yl)-3-oxoisoindolin-5-yl)sulfonyl)pyrimidine-2,4(1H,3H)-dione]: the pIC50 on NanoLuc-CRBN (setting [5]) was 5.06. In the series “in vitro”, this molecule gave a half-life above 4.82 h.

For `Cc1cn(S(=O)(=O)c2ccc3c(c2)C(=O)N(C2CCC(=O)NC2=O)C3)c(=O)[nH]c1=O` (stereo not drawn) [Compound 19, 1-((2-(2,6-dioxopiperidin-3-yl)-3-oxoisoindolin-5-yl)sulfonyl)-5-methylpyrimidine-2,4(1H,3H)-dione], the “Human plasma stability T1/2” value is 3.98 h.

As for `C=CS(=O)(=O)c1ccc2c(c1)C(=O)N(C1CCC(=O)NC1=O)C2` (stereo not drawn) [Compound 5, 3-(1-oxo-6-(vinylsulfonyl)isoindolin-2-yl)piperidine-2,6-dione], the pIC50 on NanoLuc-CRBN (setting [5]) is 4.90.

Turning to `O=C1CCC(N2Cc3ccc(S(=O)(=O)n4cnc(C(F)(F)F)c4)cc3C2=O)C(=O)N1` (stereo not drawn) [Compound 14, 3-(1-oxo-6-((4-(trifluoromethyl)-1H-imidazol-1-yl)sulfonyl)isoindolin-2-yl)piperidine-2,6-dione], the “Human plasma stability T1/2” value worked out at 0.108 h.

`O=C1CCC(N2Cc3cc(OS(=O)(=O)F)ccc3C2=O)C(=O)N1` (stereo not drawn) [Compound 2, 2-(2,6-dioxopiperidin-3-yl)-1-oxoisoindolin-5-yl sulfurofluoridate]: the “adduct formation with CRBN (intact MS)” value at hsCRBN-DDB1 complex [3] is recorded as “form an adduct with CRBN”.

In the case of `O=C1CCC(N2Cc3cc(S(=O)(=O)F)ccc3C2=O)C(=O)N1` (stereo not drawn) [Compound 4, 2-(2,6-dioxopiperidin-3-yl)-1-oxoisoindoline-5-sulfonyl fluoride], the “relative fold-change abundance of GSPT1” value on GSPT1 is reported as “clearly downregulated”. In addition, the “relative fold-change abundance of PFKFB4” value at PFKFB4 is given as “clearly downregulated”. Besides, the “relative fold-change abundance of RNF166” value on RNF166 is “clearly downregulated”. Moreover, at hsCRBN-DDB1 complex [3], the “adduct formation with CRBN (intact MS)” value is reported as “form an adduct with CRBN”. Besides, at hsCRBN-DDB1 complex [4], the “site of covalent labeling of CRBN” value is “label His353”.

As for `O=C1CCC(N2Cc3ccc(S(=O)(=O)n4cc(C(F)(F)F)cn4)cc3C2=O)C(=O)N1` (stereo not drawn) [Compound 13, 3-(1-oxo-6-((4-(trifluoromethyl)-1H-pyrazol-1-yl)sulfonyl)isoindolin-2-yl)piperidine-2,6-dione], the “Human plasma stability T1/2” value came to 0.167 h.

With `C=CS(=O)(=O)Nc1ccc2c(c1)C(=O)N(C1CCC(=O)NC1=O)C2` (stereo not drawn) [Compound 6, N-(2-(2,6-dioxopiperidin-3-yl)-3-oxoisoindolin-5-yl)ethenesulfonamide], at NanoLuc-CRBN (setting [5]), the pIC50 is 6.27.

Turning to `O=C1CCC(N2Cc3ccc(S(=O)(=O)n4ccc(=O)[nH]c4=O)cc3C2=O)C(=O)N1` (stereo not drawn) [Compound 21, 1-((2-(2,6-dioxopiperidin-3-yl)-3-oxoisoindolin-5-yl)sulfonyl)pyrimidine-2,4(1H,3H)-dione], the “Human plasma stability T1/2” value was 2.72 h.

Regarding `O=C1CCC(N2Cc3ccc(S(=O)(=O)F)cc3C2=O)C(=O)N1` (stereo not drawn) [Compound 3, 2-(2,6-dioxopiperidin-3-yl)-3-oxoisoindoline-5-sulfonyl fluoride], at hsCRBN-DDB1 complex [3] (1 eq. compound, 4 hr), the “mass shift of CRBN (Δmass)” value stood at 307. Further, on hsCRBN-DDB1 complex [3], the “adduct formation with CRBN (intact MS)” value is listed as “form an adduct with CRBN”. The “inhibition of IKZF1 degradation by lenalidomide” value with IKZF1 was “clearly inhibits the degradation of IKZF1 by lenalidomide”.

For the molecule `O=C1CCC(N2Cc3ccc(S(=O)(=O)n4ccc(C(F)(F)F)n4)cc3C2=O)C(=O)N1` (stereo not drawn) [Compound 18, 3-(1-oxo-6-((3-(trifluoromethyl)-1H-pyrazol-1-yl)sulfonyl)isoindolin-2-yl)piperidine-2,6-dione], the “Human plasma stability T1/2” value came to 0.233 h.

For `O=C1CCC(N2Cc3ccc(S(=O)(=O)n4cnc(F)c4)cc3C2=O)C(=O)N1` (stereo not drawn) [Compound 17, 3-(6-((4-fluoro-1H-imidazol-1-yl)sulfonyl)-1-oxoisoindolin-2-yl)piperidine-2,6-dione], the “Human plasma stability T1/2” value was found to be 0.317 h.

`O=C1CCC(N2Cc3ccc(S(=O)(=O)n4ccc(F)n4)cc3C2=O)C(=O)N1` (stereo not drawn) [Compound 15, 3-(6-((3-fluoro-1H-pyrazol-1-yl)sulfonyl)-1-oxoisoindolin-2-yl)piperidine-2,6-dione]: the “Human plasma stability T1/2” value was 1.92 h.

For orientation: pIC50 means the negative decadic logarithm of the IC50, by convention in mol/L. A word on the Papp: it is a coefficient for how fast a substance crosses the barrier. The term solubility (kinetic) denotes solubility judged after dilution from a stock solution rather than from solid. The half-life is the time in which the quantity being followed falls by half. A low value points to fast loss.
